Test: xn = mol fraction of the nth substance listed
Details: Liquid

CCOS(=O)(=O)[O-].CCn1cc[n+](C)c1 [1-ethyl-3-methylimidazolium ethyl sulfate] + CO
mass density [kg/m3]
Details	100 kPa	2500 kPa	5000 kPa	10000 kPa	15000 kPa	20000 kPa	25000 kPa	30000 kPa	35000 kPa
303.15 K, x1 = 0.04781	–	–	–	–	–	892.79	896.28	899.65	902.86
303.15 K, x1 = 0.1026	–	–	–	–	–	965.4	968.54	971.57	974.42
303.15 K, x1 = 0.1977	–	–	–	–	–	1047.97	1050.68	1053.34	1055.86
303.15 K, x1 = 0.2432	–	–	–	–	–	1076.28	1078.9	1081.44	1083.87
303.15 K, x1 = 0.3026	–	–	–	–	–	1106.82	1109.29	1111.72	1114.04
303.15 K, x1 = 0.3887	–	–	–	–	1137.67	1140.05	1142.39	1144.7	1146.89
303.15 K, x1 = 0.485	–	–	–	–	1165.38	1167.67	1169.9	1172.11	1174.2
303.15 K, x1 = 0.589	–	–	–	–	1187.91	1190.1	1192.25	1194.38	1196.4
303.15 K, x1 = 0.7289	–	–	–	–	1210.81	1212.92	1214.99	1217.04	1219
303.15 K, x1 = 0.8521	–	–	–	–	1225.51	1227.56	1229.58	1231.59	1233.49
303.15 K, x1 = 0.9397	–	–	–	–	1234.67	1236.7	1238.71	1240.68	1242.56
313.15 K, x1 = 0.04781	868.71	870.87	873	877.12	881.03	884.83	888.46	891.58	896.52
313.15 K, x1 = 0.1026	943.67	945.44	947.28	950.87	954.31	957.65	960.89	964.01	967.07
313.15 K, x1 = 0.1977	1028.79	1030.21	1031.77	1034.78	1037.72	1040.6	1043.41	1046.12	1048.8
313.15 K, x1 = 0.2432	1057.64	1059.08	1060.59	1063.49	1066.28	1069.03	1071.73	1074.34	1076.92
313.15 K, x1 = 0.3026	1088.94	1090.22	1091.62	1094.33	1097	1099.6	1102.15	1104.62	1107.08
313.15 K, x1 = 0.3887	1122.96	1124.22	1125.52	1128.06	1130.57	1133.05	1135.46	1137.8	1140.13
313.15 K, x1 = 0.485	1151.19	1152.35	1153.6	1156.03	1158.42	1160.76	1163.07	1165.3	1167.55
313.15 K, x1 = 0.589	1174.15	1175.21	1176.41	1178.75	1181.04	1183.3	1185.51	1187.68	1189.83
313.15 K, x1 = 0.7289	1197.48	1198.52	1199.65	1201.89	1204.09	1206.26	1208.39	1210.48	1212.56
313.15 K, x1 = 0.8521	1212.41	1213.23	1214.31	1216.48	1218.62	1220.72	1222.81	1224.83	1226.88
313.15 K, x1 = 0.9397	1221.68	1222.7	1223.82	1225.96	1228.06	1230.16	1232.21	1234.23	1236.23
323.15 K, x1 = 0.04781	859.88	862.14	864.43	868.74	872.87	876.82	880.61	884.24	887.77
323.15 K, x1 = 0.1026	935.3	937.17	939.08	942.8	946.41	949.87	953.21	956.44	959.59
323.15 K, x1 = 0.1977	1020.88	1022.39	1024.01	1027.14	1030.2	1033.16	1036.04	1038.84	1041.58
323.15 K, x1 = 0.2432	1049.97	1051.46	1052.99	1055.97	1058.89	1061.72	1064.46	1067.16	1069.79
323.15 K, x1 = 0.3026	1081.45	1082.65	1084.11	1086.92	1089.69	1092.38	1094.99	1097.52	1100.04
323.15 K, x1 = 0.3887	1115.61	1116.83	1118.22	1120.88	1123.48	1126.02	1128.5	1130.9	1133.28
323.15 K, x1 = 0.485	1143.95	1145.15	1146.43	1148.93	1151.4	1153.83	1156.17	1158.47	1160.75
323.15 K, x1 = 0.589	1167	1168.12	1169.35	1171.75	1174.11	1176.44	1178.7	1180.91	1183.11
323.15 K, x1 = 0.7289	1190.46	1191.53	1192.7	1194.99	1197.27	1199.49	1201.68	1203.82	1205.91
323.15 K, x1 = 0.8521	1205.38	1206.3	1207.44	1209.67	1211.88	1214.04	1216.15	1218.23	1220.28
323.15 K, x1 = 0.9397	1214.87	1215.9	1217.06	1219.28	1221.46	1223.61	1225.7	1227.76	1229.79
333.15 K, x1 = 0.04781	850.98	853.34	855.7	860.18	864.49	868.61	872.54	876.32	879.95
333.15 K, x1 = 0.1026	926.85	928.81	930.83	934.71	938.46	942.07	945.55	948.89	952.14
333.15 K, x1 = 0.1977	1012.95	1014.54	1016.23	1019.48	1022.66	1025.73	1028.71	1031.6	1034.42
333.15 K, x1 = 0.2432	1042.28	1043.81	1045.4	1048.48	1051.51	1054.43	1057.29	1060.06	1062.76
333.15 K, x1 = 0.3026	1073.72	1075.11	1076.58	1079.47	1082.32	1085.07	1087.76	1090.37	1092.96
333.15 K, x1 = 0.3887	1108.15	1109.48	1110.88	1113.59	1116.27	1118.87	1121.41	1123.9	1126.35
333.15 K, x1 = 0.485	1136.7	1137.95	1139.28	1141.86	1144.4	1146.86	1149.29	1151.66	1153.97
333.15 K, x1 = 0.589	1159.94	1161.11	1162.35	1164.82	1167.24	1169.62	1171.94	1174.22	1176.46
333.15 K, x1 = 0.7289	1183.49	1184.59	1185.79	1188.13	1190.47	1192.77	1194.98	1197.18	1199.35
333.15 K, x1 = 0.8521	1198.51	1199.19	1200.35	1202.62	1204.87	1207.1	1209.26	1211.4	1213.49
333.15 K, x1 = 0.9397	1207.93	1209.04	1210.2	1212.45	1214.69	1216.87	1219.03	1221.13	1223.21
